Measurements from patent US20210330611A1, “THERAPY FOR NEUROLOGICAL DISEASES/DISORDERS” (priority 2020, published 2021).
Structures can show the parent of a compound that is named as a salt. Where two headings read alike, the source gives them in different places.

What was measured:
[1] = system: fibrin-induced microglia activation; experiment: Image-based assay of fibrin-induced microglia activation (HTS and dose response); type: cell-based, rat; settings: for IC50 / inhibition at 10 µM: Rattus norvegicus, Microglia; for inhibition at 10 µM: read-out: Fibrin % inhibition
[2] = system: LPS-induced microglia activation; experiment: Image-based assay of LPS-induced microglia activation (HTS and dose response); type: cell-based, rat; settings: Rattus norvegicus, Microglia; for inhibition at 10 µM: read-out: LPS % inhibition
[3] = system: fibrin- and LPS-induced microglia activation; experiment: cells; type: cell-based, rat; settings: for inhibition at 10 µM: Rattus norvegicus; for Activity: Table 7, fib = fibrin, LPS, tox = toxicity
primary rat microglia [4] = settings: rat
primary rat microglia [5] = settings: rat; remark: listed apart in the source
in vitro [6] = settings: rat, Cell Toxicity IC50 (uM) [cFib assay]
in vitro [7] = settings: rat
[8] = 48 h, Table 1, dose response 0.001-20 μM, triplicates, primary rat microglia, 48 h, read-out: Fibrin IC50
[9] = dose response, fibrin-induced microglia activation, read-out: Fibrin IC50
[10] = fibrin-induced microglia activation, dose response, read-out: Fibrin IC50 (uM) (Suppl. Table 7)
[11] = primary microglia HTS, fibrin stimulation, increased cell size (>800 μm^2) as marker of activation
[12] = 48 h, Table 1, dose response 0.001-20 μM, triplicates, primary rat microglia, 48 h, read-out: LPS IC50
[13] = 48 h, primary microglia HTS, LPS stimulation, increased cell size (>800 μm^2) as marker of activation
[14] = LPS-induced microglia activation, dose response, read-out: LPS IC50 (uM) (Suppl. Table 7)
[15] = dose response, LPS-induced microglia activation, read-out: LPS IC50
[16] = HTS of 1907 compounds, quadrant by fibrin and LPS inhibition
[17] = Microglia, HTS hit classification, read-out: Hit
[18] = hit classification in microglia HTS, read-out: Cherry-picked Hit (Suppl. Table 7)
[19] = quadrant by fibrin and LPS inhibition in HTS of 1907 compounds
[20] = read-out: Fibrin IC50 (uM) (Suppl. Table 7)
[21] = read-out: LPS IC50 (uM) (Suppl. Table 7)
[22] = Microglia, read-out: Cherry-picked Hit (Suppl. Table 7)
[23] = Table 3, read-out: Fibrin IC50 (uM) (Suppl. Table 7)
[24] = Table 3, read-out: LPS IC50 (uM) (Suppl. Table 7)
[25] = Microglia, Table 3, read-out: Cherry-picked Hit (Suppl. Table 7)
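Wherever Fibrin % cell toxicity is given: share of dead cells sized under 150 µm2 at 10 µM in fibrin-stimulated microglia HTS.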

SMILES	IC50 [1, 8] [µM]	IC50 [1, 9] [µM]	IC50 [1, 10] [µM]	inhibition at 10 µM [1, 11] [%]	IC50 [2, 12] [µM]	inhibition at 10 µM [2, 13] [%]	IC50 [2, 14] [µM]	IC50 [2, 15] [µM]	Quadrant (FIG. 5b) [3, 16]	inhibition at 10 µM [3, 17] [%]	inhibition at 10 µM [3, 18] [%]	Quadrant (FIG. 5b) ([3]; Table 1, screen at 10 μM)	Quadrant (FIG. 5b) [3, 19]	Fibrin % cell toxicity (primary rat microglia [4]) [%]	LPS % cell toxicity (primary rat microglia [5]) [%]	IC50 (in vitro [6]) [µM]	IC50 (in vitro [7]) [µM]	IC50 (in vitro [6]; cFib assay) [µM]	inhibition at 10 µM [1] [%]	inhibition at 10 µM ([2]; 48 h) [%]	other results
CCN(CC)CCNc1ccc(CO)c2sc3ccccc3c(=O)c12 [Hycanthone, reference compound]	1	1	1	103	1	71	1	1	Q2	> 50	> 50	Q2	Q2	2	2	> 20	11	–	–	–	IC50 ([1]; Table 7, read-out: fib_IC50): 0.619 µM; IC50 ([2]; Table 7, read-out: LPS_IC50): 0.354 µM; Activity [3]: fib/LPS
C=C(CC)C(=O)c1ccc(OCC(=O)O)c(Cl)c1Cl [Ethacrynic acid, reference compound]	> 20	> 20	> 20	57	> 20	17	> 20	> 20	Q3	> 50	> 50	Q3	Q3	2	1	–	> 20	> 20	–	–	–
C#CCN[C@@H]1CCc2ccccc21 [Rasagiline, reference compound]	–	–	–	–	–	–	–	–	–	–	–	–	–	1	1	> 20	> 20	–	76	28	IC50 ([1]; 48 h, read-out: Fibrin IC50): 20 µM; IC50 ([1]; read-out: Fibrin IC50 (uM)): 20 µM; IC50 [1, 20]: 20 µM; IC50 ([2]; 48 h, read-out: LPS IC50): > 20 µM; IC50 ([2]; read-out: LPS IC50 (uM)): > 20 µM; IC50 [2, 21]: > 20 µM; Quadrant (FIG. 5b) [3]: Q3; inhibition at 10 µM [3, 22]: > 50%; inhibition at 10 µM ([3]; Microglia, read-out: Hit): > 50%
COC(=O)C(c1ccccc1)C1CCCCN1 (stereo not drawn) [Methylphenidate hydrochloride, reference compound]	> 20	> 20	> 20	81	> 20	75	> 20	> 20	Q2	> 50	> 50	Q2	Q2	2	1	–	> 20	> 20	–	–	–
CN1CCN(CCCN2c3ccccc3Sc3ccc(C(F)(F)F)cc32)CC1 [Trifluoperazine dihydrochloride, reference compound]	12	12	12	69	6	26	6	6	Q3	> 50	> 50	Q3	Q3	2	0	–	12	> 20	–	–	–
COc1cc([C@@H]2c3cc4c(cc3[C@@H](O[C@@H]3O[C@@H]5CO[C@@H](c6cccs6)O[C@H]5[C@H](O)[C@H]3O)[C@H]3COC(=O)[C@H]23)OCO4)cc(OC)c1O [Teniposide, reference compound]	2	2	2	91	1	100	1	1	Q2	> 50	> 50	Q2	Q2	2	18	–	4	20	–	–	IC50 ([1]; Table 7, read-out: fib_IC50): 0.821 µM; IC50 ([2]; Table 7, read-out: LPS_IC50): 0.24 µM; Quadrant (FIG. 5b) ([3]; Table 2, screen at 10 μM): Q2; Activity [3]: fib/LPS
CO[C@H]1C[C@H](O[C@@H]2/C(C)=C/C[C@@H]3C[C@@H](C[C@]4(CC[C@H](C)[C@@H](C5CCCCC5)O4)O3)OC(=O)[C@@H]3C=C(C)/C(=N/O)[C@H]4OC/C(=C\C=C\[C@@H]2C)[C@]43O)O[C@@H](C)[C@@H]1O [Selamectin, reference compound]	–	–	–	–	–	–	–	–	–	–	–	–	–	1	1	> 20	> 20	–	51	42	Fibrin Selectivity [1]: 3; Fibrin Selectivity (LOG10) [1]: 0.51; IC50 ([1]; 48 h, read-out: Fibrin IC50): 6 µM; IC50 ([1]; read-out: Fibrin IC50 (uM)): 6 µM; IC50 [1, 20]: 6 µM; IC50 ([2]; 48 h, read-out: LPS IC50): > 20 µM; IC50 ([2]; read-out: LPS IC50 (uM)): > 20 µM; IC50 [2, 21]: > 20 µM; Quadrant (FIG. 5b) [3]: Q3; inhibition at 10 µM [3, 22]: > 50%; inhibition at 10 µM ([3]; Microglia, read-out: Hit): > 50%
COC(=O)Nc1nc2ccc(C(=O)c3ccccc3)cc2[nH]1 [Mebendazole, reference compound]	0.2	0.2	0.2	57	6	72	6	6	Q2	> 50	–	Q2	Q2	1	2	> 20	> 20	–	–	–	Fibrin Selectivity [1]: 31; Fibrin Selectivity (LOG10) [1]: 1.49; IC50 [1, 23]: 0.2 µM; IC50 [2, 24]: 6 µM; inhibition at 10 µM [3, 25]: > 50%; Quadrant (FIG. 5b) ([3]; Table 3, screen at 10 μM): Q2
O=C1NC(=O)C(c2ccccc2)(c2ccccc2)N1 [Phenytoin sodium, reference compound]	> 20	> 20	> 20	82	> 20	63	> 20	> 20	Q2	> 50	> 50	Q2	Q2	1	1	–	> 20	> 20	–	–	–
Clc1ccc2c(c1)C(N1CCNCC1)=Nc1ccccc1O2 [Amoxapine, reference compound]	–	–	–	–	–	–	–	–	–	–	–	–	–	0	1	> 20	> 20	–	58	43	Quadrant (FIG. 5b) [3]: Q3; inhibition at 10 µM [3, 22]: > 50%; inhibition at 10 µM ([3]; Microglia, read-out: Hit): > 50%
COc1ccc(O)cc1 [Mequinol, reference compound]	–	–	–	–	–	–	–	–	–	–	–	–	–	2	1	> 20	> 20	–	98	76	IC50 ([1]; 48 h, read-out: Fibrin IC50): > 20 µM; IC50 ([1]; read-out: Fibrin IC50 (uM)): > 20 µM; IC50 [1, 20]: > 20 µM; IC50 ([2]; 48 h, read-out: LPS IC50): > 20 µM; IC50 ([2]; read-out: LPS IC50 (uM)): > 20 µM; IC50 [2, 21]: > 20 µM; Quadrant (FIG. 5b) [3]: Q2; inhibition at 10 µM [3, 22]: > 50%; inhibition at 10 µM ([3]; Microglia, read-out: Hit): > 50%
CC(=O)OCC(=O)[C@@]1(O)[C@H](OC(C)=O)C[C@H]2[C@@H]3CCC4=CC(=O)C=C[C@]4(C)[C@@]3(F)[C@@H](O)C[C@@]21C [Triamcinolone diacetate, reference compound]	0.04	0.04	0.04	110	0.8	100	0.8	0.8	Q2	> 50	–	Q2	Q2	2	5	> 20	> 20	–	–	–	Fibrin Selectivity [1]: 17; Fibrin Selectivity (LOG10) [1]: 1.23; IC50 [1, 23]: 0.04 µM; IC50 ([1]; Table 7, read-out: fib_IC50): 0.002 µM; IC50 [2, 24]: 0.8 µM; IC50 ([2]; Table 7, read-out: LPS_IC50): 0.002 µM; inhibition at 10 µM [3, 25]: > 50%; Quadrant (FIG. 5b) ([3]; Table 2, screen at 10 μM): Q2; Quadrant (FIG. 5b) ([3]; Table 3, screen at 10 μM): Q2; Activity [3]: fib/LPS
